This data set can be described thus: Caco-2 permeability assay. The class given is in vitro ADME. To be noted: human. How it is done:
The apparent permeability coefficient (Papp) of the analytical drug was determined by liquid chromatography-tandem mass spectrometry (LC/MS/MS) through a Caco-2 cell model.
The transfer rate of drug from the apical end to the basal end was determined. 108 μL of HBSS (25 mM HEPES, pH 7.4) containing 10 μM test compound was added to the apical end of the upper chamber of Transwell (purchased from Corning) containing Caco-2 cells (purchased from ATCC) at a density of 6.86×10^5 cells/cm^2, and meanwhile, 8 μL of the sample was added, as an initial dosing-end sample (A-B), to a new 96-well plate to which 72 μL of HBSS (25 mM HEPES, pH 7.4) and 240 μL of acetonitrile (containing 100 nM alprazolam, 200 nM caffeine and 100 nM tolbutamide) had been added, and the plate was vortexed at 1000 rpm for 10 min. 300 μL of HBSS (25 mM HEPES, pH 7.4) was added to the basal end.
The transfer rate of drug from the basal end to the apical end was determined. 308 μL of HBSS (25 mM HEPES, pH 7.4) containing 10 μM test compound was added to wells of the basal end of the plate, and meanwhile, 8 μL of the sample was added, as an initial dosing-end sample (B-A), to a new 96-well plate to which 72 μL of HBSS (25 mM HEPES, pH 7.4) and 240 μL of acetonitrile (containing 100 nM alprazolam, 200 nM caffeine and 100 nM tolbutamide) had been added. The plate was vortexed at 1000 rpm for 10 min, and 100 μL of HBSS (25 mM HEPES, pH 7.4) was added to the apical end.
The transfer rate from the apical end to the basal end and the transfer rate from the basal end to the apical end need to be determined simultaneously.
At the end of the transfer cycle, 8 μL of the sample was taken from the dosing end (apical end of A-B flow and basal end of B-A flow) and added to 72 μL of HBSS (25 mM HEPES, pH 7.4) and 240 μL of acetonitrile (containing 100 nM alprazolam, 200 nM caffeine and 100 nM tolbutamide), and the mixture was added to a new 96-well plate. 80 μL of the liquid was taken directly from each of the basal end of the A-B flow and the apical end of the B-A flow, and added together with 240 μL of acetonitrile (containing 100 nM alprazolam, 200 nM caffeine and 100 nM tolbutamide) to a new 96-well plate. The plates were vortexed at 1000 rpm for 10 min. The samples were centrifuged at 4000 rpm for 30 min. 100 μL of the supernatant was transferred to a new 96-well plate. All samples were analyzed by LC-MS/MS with 100 μL of pure water.
Data were calculated using Microsoft Excel and peak areas were calculated from the chromatograms. The apparent permeability coefficient (Papp) is in cm/s and is calculated using the following formula: […]
Papp is apparent permeability (cm/s×10^−6);
The outflow ratio can be determined by the following equation: […]
For orientation: Caco-2 cells form a polarised layer with tight junctions and transporters.

One may read the Papp A→B as the apparent permeability from the apical to the basolateral side of a cell layer. Read a high Papp A→B as ready permeation. Compound `CC(=O)N1CCO[C@@H](Cn2c(-c3c(F)cc(N4CCCC4=O)cc3Cl)nc3cc(C)ccc32)C1` [Compound 4, (S)-1-(4-(1-((4-acetylmorpholin-2-yl)methyl)-5-methyl-1H-benzo[d]imidazol-2-yl)-3-chloro-5-fluorophenyl)pyrrolidin-2-one] displayed an apparent permeability from apical to basolateral (Papp A→B) at 10 μM (Caco-2, 10 μM test compound, apical to basal, pH 7.4) of 8.1 ×10⁻⁶ cm/s. Further, the efflux ratio at 10 μM (Caco-2, Papp (B-A)/Papp (A-B), read-out: Outflow ratio) came to 3.8.

These data come from patent US20230250095A1, “BENZIMIDAZOLE DERIVATIVES, PREPARATION METHOD THEREFOR AND MEDICAL USE THEREOF” (TUOJIE BIOTECH(SHANGHAI) CO., LTD., priority 2020, published 2023).
